Source: patent US20040110848A1, “Method and kit for treating cancer” (priority 2002, published 2004)

Key:
[1] = test system: HMG-CoA reductase; experiment: Rate of HMG-CoA reductase synthesis (35S-labeled immunoprecipitable reductase) in lovastatin-treated C100 cells; assay type: cell-based, Syrian Hamster; conditions: for reductase synthesis lowered by: lovastatin treated C100 cells
Description: (§1) As discussed above, the end products of plant mevalonate metabolism, i.e., isoprenoids, suppress mammalian HMG-CoA reductase. To characterize the level at which plant-derived isoprenoids regulate reductase activity, lovastatin treated Syrian Hamster C100 cells were incubated with mevalonate or an isoprenoid (limonene, perillyl alcohol, or geraniol). These monoterpenes were selected because they are representative of isoprenoids found in a wide variety of plants, fruits and grains. C100 cells in which endogenous mevalonate biosynthesis is blocked with lovastatin have been a useful system to evaluate the effects of oxysterols and mevalonate-derived isoprenoids, either alone or in combination, on HMG-CoA reductase levels and rates of synthesis or degradation. […] The effects of the three isoprenoids on reductase degradation were also determined by measuring the half-life of HMG-CoA reductase.

[2] = test system: HMG-CoA reductase mRNA; experiment: HMG-CoA reductase mRNA levels in lovastatin-treated C100 cells; assay type: cell-based, Syrian Hamster; conditions: for reductase mRNA level lowered by / impact on HMG-CoA reductase mRNA levels: lovastatin treated C100 cells
Description: as §1

[3] = test system: HMG-CoA reductase; experiment: HMG-CoA reductase degradation (half-life) in lovastatin-treated SV28 cells; assay type: cell-based
Description: as §1

[4] = test system: PC-3 prostate cancer cells; experiment: Membrane Invasion Culture System (MICS); assay type: cell-based, human; conditions: for percent invaded: PC-3, 24 hr, MATRIGEL coated membrane, Perillyl Alcohol 400 μM, Genistein 20 μM, γ-tocotrienol 20 μM, control 12.5%; for invasive ability of PC-3 cells: PC-3, MICS
Description: The Membrane Invasion Culture System (MICS) represents a direct measurement of intracellular reorganization and invasive capability of cancer cell lines. The MICS protocol was used to quantitate the effects of isoprenoid treatment on the invasive potential of PC-3 prostate cancer cells. Polycarbonate membranes (10 μm pores) were coated with a basement membrane matrix (MATRIGEL™, BD Biosciences) and placed inside MICS chambers. Both upper and lower chambers were filled with serum-free RPMI 1640 containing Mito plus™. Cells were seeded onto the upper wells at 1×10^5 cells/well. After 24 hr, cells that had invaded through the membrane were collected and counted. Invasion rates were calculated as the percent cells invading the matrix coated membrane compared to total number of cells seeded (Table 3).

[5] = test system: MMP-2; experiment: Gelatin zymography of conditioned media, MMP-2; assay type: cell-based, human; conditions: for MMP-2 Count: perillyl alcohol 400 μM, 16 hr
Description: (§2) Since the effects of isoprenoids with or without genistein on prostate cancer metastasis had not been explored prior to the present invention, the effects of genistein, perillyl alcohol, and γ-tocotrienol were studied on MMP-9 and MMP-2 activity. MMP activity as described in the background has been linked in part to the Ras/ERK pathway and may also be involved in a second unidentified pathway that is ERK-independent. Therefore, we employed gelatin zymography to study effects of isoprenoids on MMP-9 and MMP-2 activation and secretion.
(§3) Referring now to FIG. 8. which depicts a gelatin zymogram showing the effects of perillyl alcohol (PA), genistein (Gen), or γ-tocotrienol (g-Toco) on MMP activity. The results of FIG. 8 are quantified in Table 2. Cells were grown in 100 mm culture plates to approximately 80% confluency. Prior to experimental treatments, cells were washed extensively in serum-free medium and then incubated for […] in serum-free media with Mito plus® serum supplement (Becton-Dickinson) in the absence or presence of isoprenoids. Conditioned media were then collected from PC-3 and DU145 cells that were incubated in the absence or presence of genistein (20 μM), perillyl alcohol (400 μM), or γ-tocotrienol (20 μM) for 16 hr and clarified by centrifugation. MMP activity in conditioned media was analyzed by mixing aliquots with SDS sample loading buffer without β-mercaptoethanol (non-reducing). Samples were electrophoresed on a 10% polyacrylamide (29:1) separating gel containing 0.1% (w/v) gelatin. Gels were incubated in developing buffer at 37° C. overnight. Enzyme activity was observed after staining with Coomassie Blue as clear bands on a blue background of undigested gelatin. Band density was then normalized to cell number prior to- and post-treatment (See FIG. 8).

[6] = test system: MMP-9; experiment: Gelatin zymography of conditioned media, MMP-9; assay type: cell-based, human; conditions: for MMP-9 Count: perillyl alcohol 400 μM, 16 hr
Description: as §2, §3

[7] = test system: 4E-BP1 (Ser65); experiment: Western blot of phospho-4E-BP1 (Ser65) in prostate cancer cells; assay type: cell-based, human; conditions: both prostate cell lines (PC-3, DU145); perillyl alcohol 400 μM 16 hr, genistein 40 μM 4 hr, LY 294002 10 μM 4 hr
Description: (§4) We treated PC-3, DU145, and Caco-2 (colon adenocarcinoma) cells with lovastatin (LVT), perillyl alcohol (PA), the P13 kinase inhibitor, LY294002 (LY), or genistein (Gen). PC-3, DU145, and Caco-2 cells were plated in RPMI plus 10% FBS and cells allowed to grow for 24 hr. Medium was supplemented with lovastatin (1 μM for 16 hr), perillyl alcohol (400 μM for 16 hr), genistein (40 μM for 4 hr), or LY 294002 (10 μM for 4 hr). Cells were lysed in RIPA buffer and protein extracts quantitated. Aliquots (100 μg) were electrophoresed and transferred to PVDF membranes. […] The eIF4E (FIG. 6, top panel) and 4E-BP1 (FIG. 6, middle panel) were detected using antibodies specific for eIF4E and phospho-4E-BP1 (Ser65). Specific proteins were detected by ECL using a Kodak Image Station.
(§5) Referring now to FIG. 6 which depicts a Western blot analysis of eIF4E, 4E-BP1 (Ser65) and Rab3A from various cells. […] The same blot was reprobed with phospho-4E-BP1 (Ser65). […] Rab3A levels were also compared in the highly metastatic PC-3 cells, DU145 and in Caco-2, which is considered to have low metastatic potential.

[8] = test system: androgen-responsive prostate tumor cell line LNCaP; conditions: cited from earlier work
[9] = test system: DU145; experiment: In vitro collagen gel contraction assay, DU145; assay type: cell-based, human; conditions: Perillyl Alcohol 400 μM, Genistein 20 μM, control 3.0
Description: (§6) An in vitro collagen gel contraction assay was used to evaluate the effects of isoprenoids on biomechanical tumor cell matrix remodeling from various prostate cancer cell lines. Collagen gel suspensions for each tumor cell line were prepared by mixing a 250 μl suspension of 3×10^6 cells/ml with 250 μl of undiluted rat tail collagen type I (BD Biosciences). The resultant collagen gel suspensions were dripped onto 35 mm petri dishes containing 3 ml RPMI 1640 in 10% FBS to prevent adhesion of collagen to the dish. Collagen gel suspensions were allowed to polymerize for one hr. Isoprenoid treatments were added 24 hr after exchanging culture medium and were removed 24-48 hr post treatment.

[10] = test system: PC-3; experiment: In vitro collagen gel contraction assay, PC-3; assay type: cell-based, human; conditions: for Diameter (cm) of collagen gel: PC-3, Perillyl Alcohol 400 μM, Genistein 20 μM, control 2.0
Description: as §6
Table 4 summaries the effects on collagen gel ball diameters for both PC3 and DU145 as a result from being exposed to various isoprenoids during the in vitro collagen gel contraction assay.

[11] = test system: human prostate cancer cells; conditions: human prostate cancer cells in culture; cited from earlier work
[12] = test system: Rab3A; experiment: Western blot of Rab3A; assay type: cell-based, human; conditions: DU145 cells; perillyl alcohol 400 μM 16 hr
Description: as §4, §5

[13] = DU145 conditioned media, genistein 20 μM (control 15.05), γ-tocotrienol 20 μM (control 5.5)
[14] = PC-3 conditioned media, genistein 20 μM (control 11.85), γ-tocotrienol 20 μM (control 18.14)
[15] = DU145 conditioned media, genistein 20 μM (control 30.71), γ-tocotrienol 20 μM (control 23.5)
[16] = PC-3 conditioned media, genistein 20 μM (control 46.95), γ-tocotrienol 20 μM (control 18.14)

| Structure (SMILES) | reductase synthesis lowered by [1] | percent invaded [4] | invasive ability of PC-3 cells [4] | MMP-2 Count [5, 13] | MMP-2 Count [5, 14] | MMP-9 activity ([6]; DU145 cells) | MMP-9 Count [6, 15] | MMP-9 activity ([6]; PC-3 cells) | MMP-9 Count [6, 16] | other results |
| --- | --- | --- | --- | --- | --- | --- | --- | --- | --- | --- |
| CC[C@H](C)C(=O)O[C@H]1C[C@@H](C)C=C2C=C[C@H](C)[C@H](CC[C@@H]3C[C@@H](O)CC(=O)O3)[C@H]21 [Lovastatin, lovastatin, reference compound] |  |  |  |  |  |  |  |  |  | Rate of Synthesis (reductase) ([1]; percentage (mean ± S.D.) of lovastatin-treated C100 cells set at 100%, 1 hr 35S labeling, mevalonate 10 mM, limonene 5 mM, perillyl alcohol 0.7 mM, geraniol 0.4 mM): 100 ± 15%; mRNA Levels (reductase) ([2]; percentage of lovastatin-treated cells set at 100%, corrected to RP S17 mRNA, mevalonate 10 mM, limonene 5 mM, perillyl alcohol 0.7 mM, geraniol 0.4 mM): 100 ± 5% |
| CC(O)(CCO)CC(=O)O (stereo not shown) [Mevalonate, mevalonate, reference compound] | 65% |  |  |  |  |  |  |  |  | HMG-CoA reductase half-life decreased by [3]: approximately 60%; reductase mRNA level lowered by [2]: 65% |
| CC(C)=CCC/C(C)=C/CC/C(C)=C/CC[C@]1(C)CCc2cc(O)c(C)c(C)c2O1 [γ-tocotrienol] |  | 7% | inhibited the invasive ability | −2.2 | 15.3 | modest monotonic decreases | 16.5 | modest monotonic decreases | 27.4 | MMP-2 activity ([5]; DU145 cells): modest monotonic decreases; MMP-2 activity ([5]; PC-3 cells): modest monotonic decreases |
| CC(C)=CCC/C(C)=C/CO [Geraniol, geraniol] | 98% |  |  |  |  |  |  |  |  | effect on half-life of reductase [3]: Neither limonene nor geraniol affected the half-life; reductase mRNA level lowered by [2]: 64% |
| O=c1c(-c2ccc(O)cc2)coc2cc(O)cc(O)c12 [Genistein, genistein] |  | 0% | inhibited the invasive ability of PC-3 cells, with genistein exhibiting the greatest effect | 23.54 | 4.25 | exhibited no similar effect | 47.64 | nearly ninety percent | 5.25 | 4E-BP1 Ser65 phosphorylation (Western blot) [7]: did not appear to affect Ser65 phosphorylation of the upper band but reduced phosphorylation of the lower of the two bands; concentration shown to induce apoptosis [8]: above 20 μM; Diameter (cm) of collagen gel [9]: 3.2 cm; Diameter (cm) of collagen gel [10]: 3.5 cm; concentration inhibiting growth [11]: above 50 μmol |
| C=C(C)[C@H]1CC=C(C)CC1 [limonene] | 70% |  |  |  |  |  |  |  |  | effect on half-life of reductase [3]: Neither limonene nor geraniol affected the half-life; impact on HMG-CoA reductase mRNA levels [2]: neither limonene nor perillyl alcohol had a significant impact |
| C=C(C)[C@@H]1CC=C(CO)CC1 [Perillyl Alcohol, perillyl alcohol] | 89% | 5% | inhibited the invasive ability | 10.63 | 6.73 | nearly extinguished all MMP-9 activity | 0.09 | exhibited no similar effect | 72.65 | 4E-BP1 Ser65 phosphorylation (Western blot) [7]: reduced Ser65 phosphorylation; Rab3A protein level (Western blot) [12]: further reduce the levels of Rab3A protein; impact on HMG-CoA reductase mRNA levels [2]: neither limonene nor perillyl alcohol had a significant impact; Diameter (cm) of collagen gel [9]: 3.75 cm; extracellular matrix remodeling of gel ball ([10]; PC3 cells, FIG. 9): retards matrix remodeling; Diameter (cm) of collagen gel [10]: 3.2 cm |
